Publication PMC11671411 (Oncology Research, 2024)

Target: T1, PI3KCD (Homo sapiens, UniProt O00329)
T1 construct: gene PIK3CD
Test: PI 3-Kinase (human) HTRF enzyme assay with the PI3KCD isoform
Format: biochemical

T1 sequence (O00329 whole entry): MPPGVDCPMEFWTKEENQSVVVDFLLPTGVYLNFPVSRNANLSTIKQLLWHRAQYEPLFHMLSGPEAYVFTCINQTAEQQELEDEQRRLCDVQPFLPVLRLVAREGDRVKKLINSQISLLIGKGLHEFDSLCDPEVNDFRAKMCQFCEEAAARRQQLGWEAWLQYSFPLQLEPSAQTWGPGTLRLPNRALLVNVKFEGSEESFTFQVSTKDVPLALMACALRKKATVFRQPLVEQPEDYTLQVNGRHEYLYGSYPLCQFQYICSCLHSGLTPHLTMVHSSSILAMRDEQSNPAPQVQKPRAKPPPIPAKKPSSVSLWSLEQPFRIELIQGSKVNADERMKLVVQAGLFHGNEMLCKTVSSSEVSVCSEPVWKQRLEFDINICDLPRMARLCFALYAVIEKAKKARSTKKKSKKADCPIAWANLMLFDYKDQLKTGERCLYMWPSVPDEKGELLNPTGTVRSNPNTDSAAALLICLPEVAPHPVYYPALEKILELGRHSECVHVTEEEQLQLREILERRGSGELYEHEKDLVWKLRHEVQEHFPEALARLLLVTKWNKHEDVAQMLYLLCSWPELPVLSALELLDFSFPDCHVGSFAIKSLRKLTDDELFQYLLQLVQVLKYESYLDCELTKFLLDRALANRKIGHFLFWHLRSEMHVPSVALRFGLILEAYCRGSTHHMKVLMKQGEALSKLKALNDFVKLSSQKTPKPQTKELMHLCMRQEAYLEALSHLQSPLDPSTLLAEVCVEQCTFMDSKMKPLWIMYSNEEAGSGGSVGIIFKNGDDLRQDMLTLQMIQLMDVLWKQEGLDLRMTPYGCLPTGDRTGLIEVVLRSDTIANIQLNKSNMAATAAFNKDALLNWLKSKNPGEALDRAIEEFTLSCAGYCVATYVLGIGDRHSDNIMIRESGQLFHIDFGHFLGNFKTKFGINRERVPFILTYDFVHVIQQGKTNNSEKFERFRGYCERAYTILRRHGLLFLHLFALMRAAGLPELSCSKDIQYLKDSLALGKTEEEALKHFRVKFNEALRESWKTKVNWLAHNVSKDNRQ

Q: c1ccc2c(c1)c1ccccc1c1nc3c4ccccc4c4ccccc4c3nc21 [SBL-JP-0004, tetrabenzo[a,c,h,j]phenazine] was tested. Which IC50 did it give?
A: 201 nM
